# Reference: patent publication US20050025809A1, “Poly-4-hydroxybutyrate matrices for sustained drug delivery” (Tepha, Inc., priority 2003, published 2005)
# Like-named read-outs stand apart in the source and are kept apart here.
# Tests used:
# [1] = Drug release from PHA3444 rods in PBS; type: physicochemical; conditions: PHA3444-34%:drug 2:1 rods
# From the text: The paste was then introduced into a mold measuring 150×5×5 mm, and left to dry at ambient temperature.
# [2] = PHA4400 loaded 10:1, PBS pH 7.4, 37° C.
smiles,measurement,setting,value
"CN(C)[C@@H]1C(O)=C(C(N)=O)C(=O)[C@@]2(O)C(O)=C3C(=O)c4c(O)cccc4[C@@](C)(O)[C@H]3C[C@@H]12 [TCN, Tetracycline (neutral)]",average cumulative release,"PHA4400:drug 2:1 rods, PBS pH 7.4, 37° C., at 11 days",~9%
same,burst of release,[2],no burst
same,release order,[2],almost perfect zero order release after the first hour
same,total release,"PHA4400 loaded 10:1, in fifteen days",17%
same,burst of release,[1],No burst of release was observed
same,average cumulative release,"[1]; PBS pH 7.4, 37° C., at 17 days",~23%
